ChEMBL document CHEMBL3813623, “Novel approaches to map small molecule-target interactions” (Bioorg Med Chem, 2016)

Biological target: T1, Bile acid receptor (Homo sapiens, UniProt Q96RI1)
T1 sequence (Q96RI1 whole entry): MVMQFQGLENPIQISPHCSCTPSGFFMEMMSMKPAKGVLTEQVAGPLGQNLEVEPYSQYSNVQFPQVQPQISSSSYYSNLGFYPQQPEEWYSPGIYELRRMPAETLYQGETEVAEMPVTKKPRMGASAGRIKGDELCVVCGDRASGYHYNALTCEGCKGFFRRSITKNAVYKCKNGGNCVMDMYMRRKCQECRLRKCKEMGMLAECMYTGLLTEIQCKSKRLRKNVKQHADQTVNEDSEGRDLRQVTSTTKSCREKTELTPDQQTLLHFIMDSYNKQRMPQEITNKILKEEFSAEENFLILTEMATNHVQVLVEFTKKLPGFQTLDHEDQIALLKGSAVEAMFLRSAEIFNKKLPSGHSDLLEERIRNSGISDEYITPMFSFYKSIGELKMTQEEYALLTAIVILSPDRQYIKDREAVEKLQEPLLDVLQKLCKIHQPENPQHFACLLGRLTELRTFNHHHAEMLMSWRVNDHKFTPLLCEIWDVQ
Test: Agonist activity at farnesoid x receptor(unknown origin)

SMILES: CNC(=O)O[C@@H](CC(C)C)c1nc([C@H]2OC(=O)/C(C)=C/C/C(C)=C/[C@@H](O)[C@@H](C)\C=C(C)/C=C(C)\C=C\[C@@H](O)[C@H](C)[C@H](OC)/C(C)=C/C=C/[C@@H]2C)cs1 [ARCHAZOLID A]
- EC50: 200 nM
